# According to patent publication US6737383B1, “Herbicidal oxadiazolidines” (priority 1999, dated 2004):
# Key:
# morningglory = assay: Test B pre/postemergence morningglory; type: in vivo, Ipomoea hederacea
# Summary of the method: (§1)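 Test chemicals in a non-phytotoxic solvent mixture with surfactant were sprayed preemergence onto planted seeds and postemergence onto plants 2 to 18 cm tall (1- to 4-leaf stage). After twelve to sixteen days in a greenhouse, injury was visually rated against untreated controls from 0 (no effect) to 10 (complete control).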
# bamyardgrass = assay: Test B flood test barnyardgrass; type: in vivo, Echinochloa crus-galli
# Summary of the method: (§2)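 Plants were grown to the 2-leaf stage before treatment with test chemical, then held in a greenhouse for twelve to sixteen days. Injury was visually rated against untreated controls on a 0–10 scale, where 0 is no effect and 10 is complete control.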
# giant foxtail = assay: Test B pre/postemergence giant foxtail; type: in vivo, Setaria faberii
# Summary of the method: as §1
# soybean = assay: Test B pre/postemergence soybean; type: in vivo, Glycine max
# Summary of the method: as §1
# smallflower flatsedge = assay: Test B flood test smallflower flatsedge; type: in vivo, Cyperus difformis
# Summary of the method: as §2
# wild oat = assay: Test B pre/postemergence wild oat; type: in vivo, Avena fatua
# Summary of the method: as §1
# sugar beet = assay: Test B pre/postemergence sugar beet; type: in vivo, Beta vulgaris
# Summary of the method: as §1
# wheat = assay: Test B pre/postemergence wheat; type: in vivo, Triticum aestivum
# Summary of the method: as §1
# velvetleaf = assay: Test B pre/postemergence velvetleaf; type: in vivo, Abutilon theophrasti
# Summary of the method: as §1
# pigweed = assay: Test B pre/postemergence pigweed; type: in vivo, Amaranthus retroflexus
# Summary of the method: as §1
# surinam grass = assay: Test B pre/postemergence surinam grass; type: in vivo, Brachiaria decumbens
# Summary of the method: as §1
# corn = assay: Test B pre/postemergence corn; type: in vivo, Zea mays
# Summary of the method: as §1
# rice = assay: Test B flood test rice; type: in vivo, Oryza sativa
# Summary of the method: as §2
# rape = assay: Test B pre/postemergence rape; type: in vivo, Brassica napus
# Summary of the method: as §1
# duck salad = assay: Test B flood test duck salad; type: in vivo, Heteranthera limosa
# Summary of the method: as §2
# cocklebur = assay: Test B pre/postemergence cocklebur; type: in vivo, Xanthium strumarium
# Summary of the method: as §1
# [1] = Postemergence, Rate 125 g/ha, scale of 0 to 10 where 0 is no effect and 10 is complete control
# [2] = Postemergence, Rate 250 g/ha, scale of 0 to 10, 0 is no effect, 10 is complete control
# [3] = Postemergence, Rate 500 g/ha, scale of 0 to 10 where 0 is no effect and 10 is complete control
# [4] = Postemergence, Rate 1000 g/ha, scale 0 to 10 (0 no effect, 10 complete control)
# [5] = Preemergence, Rate 125 g/ha, scale of 0 to 10 where 0 is no effect and 10 is complete control
# [6] = Preemergence, Rate 250 g/ha, scale 0 to 10 (0 no effect, 10 complete control)
# [7] = Preemergence, Rate 500 g/ha, scale of 0 to 10 where 0 is no effect and 10 is complete control
# [8] = Rate 1000 g/ha, Preemergence, scale 0 to 10 (0 no effect, 10 complete control)
# [9] = Pre-emergence, Rate 1000 g/ha, scale 0 to 10 (0 no effect, 10 complete control)
# [10] = Rate 125 g/ha, under heading Pre-emergence, flood test species, visual evaluation after twelve to sixteen days
# [11] = Rate 250 g/ha, Pre-emergence (flood test species), scale 0 to 10, 0 is no effect, 10 is complete control
# [12] = Rate 500 g/ha, Pre-emergence section of Table B, 0 to 10 scale (0 no effect, 10 complete control)
structure (smiles),measurement,setting,value
COC(=O)C(C)n1c(=O)on(C(=O)N(c2ccc(Cl)cc2)C(C)C)c1=O (stereo not shown) [Compound 623],"Plant response rating, Morningglory",morningglory; [1],6
same,Morningglory plant response rating,morningglory; [2],8
same,"Plant response rating, Morningglory",morningglory; [3],10
same,Morningglory plant response rating,morningglory; [4],10
same,Morningglory plant response rating,morningglory; [5],0
same,"Plant response rating, Morningglory",morningglory; [6],0
same,"Plant response rating, Morningglory",morningglory; [7],0
same,"Plant response rating, Morningglory",morningglory; [8],0
same,Barnyardgrass plant response rating,bamyardgrass; [9],0
same,"Barnyardgrass plant response rating (0 to 10 scale, 0 is no effect, 10 is complete control)",bamyardgrass; [10],0
same,Barnyardgrass plant response rating,bamyardgrass; [11],0
same,Barnyardgrass plant response rating,bamyardgrass; [12],0
same,"Plant response rating, Giant foxtail",giant foxtail; [1],0
same,Giant foxtail plant response rating,giant foxtail; [2],0
same,"Plant response rating, Giant foxtail",giant foxtail; [3],0
same,Giant foxtail plant response rating,giant foxtail; [4],2
same,Giant foxtail plant response rating,giant foxtail; [5],7
same,"Plant response rating, Giant foxtail",giant foxtail; [6],8
same,"Plant response rating, Giant foxtail",giant foxtail; [7],9
same,"Plant response rating, Giant foxtail",giant foxtail; [8],9
same,"Plant response rating, Soybean",soybean; [1],0
same,Soybean plant response rating,soybean; [2],0
same,Soybean plant response rating,soybean; [4],3
same,Soybean plant response rating,soybean; [5],0
same,"Plant response rating, Soybean",soybean; [6],0
same,"Plant response rating, Soybean",soybean; [7],0
same,"Plant response rating, Soybean",soybean; [8],0
same,S. Flatsedge plant response rating,smallflower flatsedge; [9],0
same,"S. Flatsedge plant response rating (0 to 10 scale, 0 is no effect, 10 is complete control)",smallflower flatsedge; [10],0
same,S. Flatsedge plant response rating,smallflower flatsedge; [11],0
same,S. Flatsedge plant response rating,smallflower flatsedge; [12],0
same,"Plant response rating, Wild oats",wild oat; [1],0
same,Wild oats plant response rating,wild oat; [2],0
same,Wild oats plant response rating,wild oat; [4],2
same,Wild oats plant response rating,wild oat; [5],0
same,"Plant response rating, Wild oats",wild oat; [6],0
same,"Plant response rating, Wild oats",wild oat; [7],2
same,"Plant response rating, Wild oats",wild oat; [8],2
same,"Plant response rating, Sugarbeets",sugar beet; [1],0
same,Sugarbeets plant response rating,sugar beet; [2],0
same,Sugarbeets plant response rating,sugar beet; [4],0
same,Sugarbeets plant response rating,sugar beet; [5],0
same,"Plant response rating, Sugarbeets",sugar beet; [6],0
same,"Plant response rating, Sugarbeets",sugar beet; [7],2
same,"Plant response rating, Sugarbeets",sugar beet; [8],7
same,"Plant response rating, Wheat",wheat; [1],0
same,Wheat plant response rating,wheat; [2],1
same,Wheat plant response rating,wheat; [4],1
same,Wheat plant response rating,wheat; [5],0
same,"Plant response rating, Wheat",wheat; [6],0
same,"Plant response rating, Wheat",wheat; [7],0
same,"Plant response rating, Wheat",wheat; [8],3
same,"Plant response rating, Velvetleaf",velvetleaf; [1],0
same,Velvetleaf plant response rating,velvetleaf; [2],0
same,Velvetleaf plant response rating,velvetleaf; [4],2
same,Velvetleaf plant response rating,velvetleaf; [5],0
same,"Plant response rating, Velvetleaf",velvetleaf; [6],0
same,"Plant response rating, Velvetleaf",velvetleaf; [7],0
same,"Plant response rating, Velvetleaf",velvetleaf; [8],0
same,"Plant response rating, Redroot pigweed",pigweed; [1],0
same,Redroot pigweed plant response rating,pigweed; [2],0
same,Redroot pigweed plant response rating,pigweed; [4],5
same,Redroot pigweed plant response rating,pigweed; [5],0
same,"Plant response rating, Redroot pigweed",pigweed; [6],0
same,"Plant response rating, Redroot pigweed",pigweed; [7],0
same,"Plant response rating, Redroot pigweed",pigweed; [8],5
same,"Plant response rating, B. signalgrass",surinam grass; [1],0
same,B. signalgrass plant response rating,surinam grass; [2],0
same,"Plant response rating, B. signalgrass",surinam grass; [3],0
same,B. signalgrass plant response rating,surinam grass; [4],0
same,B. signalgrass plant response rating,surinam grass; [5],0
same,"Plant response rating, B. signalgrass",surinam grass; [6],0
same,"Plant response rating, B. signalgrass",surinam grass; [7],2
same,"Plant response rating, B. signalgrass",surinam grass; [8],4
same,"Plant response rating, Corn",corn; [1],0
same,Corn plant response rating,corn; [2],0
same,"Plant response rating, Corn",corn; [3],0
same,Corn plant response rating,corn; [4],0
same,Corn plant response rating,corn; [5],0
same,"Plant response rating, Corn",corn; [6],0
same,"Plant response rating, Corn",corn; [7],0
same,"Plant response rating, Corn",corn; [8],0
same,Rice plant response rating,rice; [9],0
same,"Rice plant response rating (0 to 10 scale, 0 is no effect, 10 is complete control)",rice; [10],0
same,Rice plant response rating,rice; [11],0
same,Rice plant response rating,rice; [12],0
same,"Plant response rating, Rape",rape; [1],0
same,Rape plant response rating,rape; [2],0
same,"Plant response rating, Rape",rape; [3],0
same,Rape plant response rating,rape; [4],0
same,Rape plant response rating,rape; [5],0
same,"Plant response rating, Rape",rape; [6],0
same,"Plant response rating, Rape",rape; [7],2
same,"Plant response rating, Rape",rape; [8],2
same,Ducksalad plant response rating,duck salad; [9],0
same,"Ducksalad plant response rating (0 to 10 scale, 0 is no effect, 10 is complete control)",duck salad; [10],0
same,Ducksalad plant response rating,duck salad; [11],0
same,Ducksalad plant response rating,duck salad; [12],0
same,"Plant response rating, Cocklebur",cocklebur; [1],0
same,Cocklebur plant response rating,cocklebur; [2],0
same,"Plant response rating, Cocklebur",cocklebur; [3],0
same,Cocklebur plant response rating,cocklebur; [4],0
same,Cocklebur plant response rating,cocklebur; [5],0
same,"Plant response rating, Cocklebur",cocklebur; [6],0
same,"Plant response rating, Cocklebur",cocklebur; [7],0
same,"Plant response rating, Cocklebur",cocklebur; [8],0
